We go through eight compounds from article PMC9516332 (Frontiers in Oncology, 2022).

Holding throughout (assay): Kinase panel profiling at 1 µmol/L (MSA or IMAP), percentage inhibition
Common to all, as to type: biochemical

Assay [1] deals with panel of 255 wild-type kinases (Homo sapiens, UniProt Q07912). As to conditions: ACK kinase assay; 1 µmol/L single concentration; read-out: %-inhibition ACK.
Assay [2] has as its target panel of 255 wild-type kinases (Homo sapiens, UniProt P06239). As to conditions: kinase LCK; 1 µmol/L single concentration; read-out: %-inhibition at 1 µmol/L, LCK.
For assay [3], the target named is panel of 255 wild-type kinases (Homo sapiens, UniProt Q16816). The conditions noted are these: kinase PHKG1; 1 µmol/L single concentration; read-out: %-inhibition at 1 µmol/L, PHKG1.
For assay [4], the target named is T1, panel of 255 wild-type kinases (Homo sapiens, UniProt P15735).
T1 sequence (P15735 1-406): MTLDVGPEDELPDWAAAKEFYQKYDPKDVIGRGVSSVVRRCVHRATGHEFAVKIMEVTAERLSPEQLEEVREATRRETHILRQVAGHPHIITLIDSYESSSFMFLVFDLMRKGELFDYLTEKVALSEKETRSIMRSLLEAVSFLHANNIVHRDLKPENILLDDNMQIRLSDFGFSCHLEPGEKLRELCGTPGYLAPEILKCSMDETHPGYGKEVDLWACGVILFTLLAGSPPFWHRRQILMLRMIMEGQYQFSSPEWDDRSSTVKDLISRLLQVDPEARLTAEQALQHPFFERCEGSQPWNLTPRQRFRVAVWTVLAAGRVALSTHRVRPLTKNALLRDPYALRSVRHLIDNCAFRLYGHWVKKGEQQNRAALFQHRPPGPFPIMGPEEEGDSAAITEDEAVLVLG
The conditions noted are these: kinase PHKG2; 1 µmol/L single concentration; read-out: %-inhibition at 1 µmol/L, PHKG2.

Assay [5] concerns the target T2, panel of 255 wild-type kinases (Homo sapiens, UniProt O15111).
T2 sequence (O15111 1-745): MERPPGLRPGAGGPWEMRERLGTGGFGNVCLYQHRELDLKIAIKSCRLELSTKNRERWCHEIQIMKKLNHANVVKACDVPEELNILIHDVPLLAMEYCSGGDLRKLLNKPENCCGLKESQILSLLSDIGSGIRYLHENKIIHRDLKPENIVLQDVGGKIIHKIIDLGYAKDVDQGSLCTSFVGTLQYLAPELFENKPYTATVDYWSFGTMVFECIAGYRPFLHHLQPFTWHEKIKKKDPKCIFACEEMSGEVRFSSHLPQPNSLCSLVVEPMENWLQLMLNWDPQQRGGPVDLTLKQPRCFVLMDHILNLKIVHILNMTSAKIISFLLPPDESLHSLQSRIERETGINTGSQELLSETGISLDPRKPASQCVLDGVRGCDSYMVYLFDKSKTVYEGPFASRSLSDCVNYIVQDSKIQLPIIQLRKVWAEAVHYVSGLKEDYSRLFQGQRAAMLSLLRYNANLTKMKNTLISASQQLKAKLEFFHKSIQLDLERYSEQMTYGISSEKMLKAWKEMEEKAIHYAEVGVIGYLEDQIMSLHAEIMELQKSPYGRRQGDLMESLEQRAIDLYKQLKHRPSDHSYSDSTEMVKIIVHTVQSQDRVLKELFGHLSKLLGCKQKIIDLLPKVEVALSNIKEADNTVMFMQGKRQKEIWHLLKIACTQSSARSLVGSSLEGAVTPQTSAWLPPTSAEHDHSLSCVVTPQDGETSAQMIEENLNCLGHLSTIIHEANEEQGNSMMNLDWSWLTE
The conditions noted are these: kinase IKKα; 1 µmol/L single concentration; read-out: %-inhibition at 1 µmol/L, IKKα.

The target in assay [6] is panel of 255 wild-type kinases (Homo sapiens, UniProt O75116). As to conditions: kinase ROCK2; 1 µmol/L single concentration; read-out: %-inhibition at 1 µmol/L, ROCK2.
The target in assay [7] is panel of 255 wild-type kinases (Homo sapiens, UniProt Q13557). The conditions noted are these: CaMK2δ kinase assay; 1 µmol/L single concentration; read-out: %-inhibition CaMK2δ.
In assay [8] the target is panel of 255 wild-type kinases (Homo sapiens, UniProt Q14012). The conditions noted are these: CaMK1α kinase assay; 1 µmol/L single concentration; read-out: %-inhibition CaMK1α.
Assay [9] has as its target panel of 255 wild-type kinases (Homo sapiens, UniProt P51957). The conditions noted are these: NEK4; 1 µmol/L single concentration; read-out: %-inhibition, NEK4.
Assay [10] addresses panel of 255 wild-type kinases (Homo sapiens, UniProt P09619). As to conditions: read-out: %-inhibition at 1 µmol/L, PDGFRβ.
The target in assay [11] is panel of 255 wild-type kinases (Homo sapiens, UniProt P50750). The conditions noted are these: CDK9/CycT1 kinase assay; 1 µmol/L single concentration; read-out: %-inhibition CDK9/CycT1.
The target of assay [12] is panel of 255 wild-type kinases (Homo sapiens, UniProt Q9P286). The conditions noted are these: PAK5; 1 µmol/L single concentration; read-out: %-inhibition, PAK5.
Assay [13] concerns the target T3, panel of 255 wild-type kinases (Homo sapiens, UniProt Q13043).
T3 sequence (Q13043 1-487): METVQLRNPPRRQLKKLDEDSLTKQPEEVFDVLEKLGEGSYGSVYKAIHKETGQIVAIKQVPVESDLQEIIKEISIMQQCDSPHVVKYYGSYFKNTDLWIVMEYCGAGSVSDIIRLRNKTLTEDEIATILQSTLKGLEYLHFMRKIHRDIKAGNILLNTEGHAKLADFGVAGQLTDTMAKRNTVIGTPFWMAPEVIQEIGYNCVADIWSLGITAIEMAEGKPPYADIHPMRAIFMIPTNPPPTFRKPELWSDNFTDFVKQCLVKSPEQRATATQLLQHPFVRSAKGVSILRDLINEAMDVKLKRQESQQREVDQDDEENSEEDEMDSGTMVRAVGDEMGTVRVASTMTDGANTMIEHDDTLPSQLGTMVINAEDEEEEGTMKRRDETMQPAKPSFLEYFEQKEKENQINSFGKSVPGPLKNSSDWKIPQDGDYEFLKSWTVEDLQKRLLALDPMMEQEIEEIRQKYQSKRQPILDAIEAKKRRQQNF
The conditions noted are these: MST1; 1 µmol/L single concentration; read-out: %-inhibition, MST1.

The mark [14] stands for this setting: kinase PDGFRβ, 1 µmol/L single concentration.

Where two headings read alike, the source gives them in different places.

Consider `COC(=O)N[C@@H](C)CNc1nccc(-c2cn(C(C)C)nc2-c2cc(Cl)cc(NS(C)(=O)=O)c2F)n1` [encorafenib], for which the inhibition at 1 µM is -4.66% in [1]; 1.39% in assay [2]; 3% in assay [3]; -1.79% in assay [4]; 12% in assay [5]; 1.32% in assay [6]. Moreover, the inhibition at 1 µM in [7] was -2.79%; in [8] it was 2.72%; in [9], 4.44%; in [10] (setting [14]) it was 1.38%; in assay [11] it was -1.11%; in assay [12], 0.399%. Besides, the inhibition at 1 µM in assay [13] is 0.835%.
For the compound `CCc1nc(C(N)=O)c(Nc2ccc(N3CCC(N4CCN(C)CC4)CC3)c(OC)c2)nc1NC1CCOCC1` [gilteritinib], the inhibition at 1 µM in assay [1] turned out to be 90%; in [2] it was 97%; in [3], 92%; in assay [4], 59%; in assay [5], 2.16%; in [6] it was 66%. In addition, the inhibition at 1 µM came out at 84% in assay [7]; 41% in assay [8]; 50% in assay [9]; 105% in assay [10] (setting [14]); 32% in assay [11]; 92% in assay [12]. Also, the inhibition at 1 µM in assay [13] came out at 92%.
On to `CCN1CCN(c2ccc(Nc3cc(N(C)C(=O)Nc4c(Cl)c(OC)cc(OC)c4Cl)ncn3)cc2)CC1` [infigratinib], for which the inhibition at 1 µM in assay [1] was 43%; in assay [2], 91%; in [3] it was 0.355%; in assay [4], 1.64%; in assay [5] it was 2.62%; in assay [6], -0.775%. Further, the inhibition at 1 µM is -1.48% in assay [7]; -22% in [8]; 13% in assay [9]; 59% in assay [10] (setting [14]); -0.383% in assay [11]; 2.49% in assay [12]. Besides, the inhibition at 1 µM in [13] worked out at 1.11%.
Consider `O=C(Nc1cnn2ccc(N3CCC[C@@H]3c3cc(F)ccc3F)nc12)N1CC[C@H](O)C1` [larotrectinib], for which the inhibition at 1 µM was 52% in assay [1]; 1.14% in assay [2]; 1.81% in assay [3]; 5.63% in assay [4]; 2.45% in [5]; -3.33% in assay [6]. Further, the inhibition at 1 µM in [7] was 6%; in [8], -1.63%; in [9], 0.695%; in assay [10] (setting [14]), -0.157%; in assay [11], -0.399%; in assay [12] it was -0.213%. Also, the inhibition at 1 µM in assay [13] was -4%.
With `CCN1C(=O)N(c2c(F)c(OC)cc(OC)c2F)Cc2cnc3[nH]c(CN4CCOCC4)cc3c21` [pemigatinib], the inhibition at 1 µM in assay [1] is 4.32%; in [2], 17%; in assay [3], 6%; in assay [4], 8%; in assay [5], -6%; in assay [6], -5%. Moreover, the inhibition at 1 µM in [7] was determined as 11%; in assay [8], 12%; in assay [9], 6.33%; in assay [10] (setting [14]), 73%; in assay [11], 7%; in assay [12] it was 2.26%. In addition, the inhibition at 1 µM in assay [13] worked out at 6%.
For `FC(F)(F)c1ccc(CNc2ccc(Cc3c[nH]c4ncc(Cl)cc34)cn2)cn1` [pexidartinib], the inhibition at 1 µM was 12% in assay [1]; 51% in [2]; 21% in assay [3]; 4.25% in [4]; -0.379% in assay [5]; 0.233% in assay [6]. Further, the inhibition at 1 µM in assay [7] was 5.41%; in assay [8], -13%; in [9], 2.69%; in assay [10] (setting [14]) it was 64%; in assay [11], 7%; in assay [12], 7%. The inhibition at 1 µM in [13] is 25%.
Regarding `CO[C@]1(C(=O)N[C@@H](C)c2ccc(-n3cc(F)cn3)nc2)CC[C@H](c2nc(C)cc(Nc3cc(C)[nH]n3)n2)CC1` [pralsetinib], the inhibition at 1 µM in assay [1] was 84%; in [2] it was 98%; in [3], 1.67%; in assay [4], 2.24%; in assay [5] it was -1.52%; in [6], 1.29%. In addition, the inhibition at 1 µM in [7] is -1%; in [8], -4.72%; in assay [9], 2.56%; in [10] (setting [14]), 99%; in [11] it was 6%; in assay [12], 69%. Also, in [13], the inhibition at 1 µM was determined as 19%.
For `CCn1c(=O)c(-c2cc(NC(=O)Nc3ccccc3)c(F)cc2Br)cc2cnc(NC)cc21` [ripretinib], the inhibition at 1 µM was 23% in assay [1]; 99% in [2]; 1.76% in assay [3]; 1.5% in assay [4]; 1.08% in assay [5]; -1.2% in [6]. For the same compound, the inhibition at 1 µM in assay [7] was 0.353%; in [8] it was -8%; in assay [9] it was 19%; in [10] it was 106%; in [11], 0.112%; in assay [12] it was 1.9%. Besides, the inhibition at 1 µM in assay [13] amounted to 3%.
